From US6750178B1, “Agrochemical composition” (Syngenta Limited, priority 1999, dated 2004)

Assays:
Type in all cases: in vivo
SIDSP = assay: Glass-house ED90 of paraquat dichloride plus adjuvant, SIDSP; conditions: paraquat dichloride 15, 45, 135 and 270 g/ha paraquat ion; adjuvant 0.1% w/v; 18 days after treatment
[1] = test system: Soghinm halepenise(SORHA); assay: Glass-house ED90 of glyphosate salts, SORHA; conditions: calculated dose for 90% control; rates 500-4000 glyphosate acid equivalent/ha; AL2042 0.25% w/v with all treatments; 22 days after treatment
Description: This Example illustrates the use of salts of glyphosate acid and the adjuvants of Formula (I).
Glyphosate trimesium and the glyphosate salts of the indicated adjuvants of formula (I) were applied to Soghinm halepenise(SORHA) at 500, 1000, 2000 and 4000 glyphosate acid equivalent/ha. All treatments were made up in deionised water and applied using a tracksprayer with a 11002 nozzle at a spray application volume of 200 l/ha . All treatments were replicated 3 times. After spraying the plants were laid out in a glass-house and maintained at a temperature of 24° C. by day and 19° C. by night. A visual assessment of % control was carried out 22 days after treatment and calculated doses for 90% control (ED90) were derived. AL2042 alkylpolygylcoside was used at 0.25% w/v as additional surfactant with all treatments. It will be appreciated that a low ED90 value indicates high activity.

[2] = test system: Ipomoea hederacea (IPOHE); assay: Glass-house visual % control with potassium glyphosate plus adjuvant, IPOHE; conditions: potassium glyphosate 300 g glyphosate acid equivalent/ha, AL2042 0.2% w/v, CRODAFOS T5A salts 0.2% w/v phosphate ester acid equivalent, 16 days after treatment
Description: This Example illustrates the use of a salt of ethoxy (5 moles of EO) isotridecyl phosphate, ester in the acid form (CRODAFOS T5A) with JEFFAMINE ED600. CRODAFOS T5A is a mixture of mono and di esters. CRODAFOS is a tradename of Croda.
Potassium glyphosate, in combination with the adjuvants specified below, was applied to Ipomoea hederacea (IPOHE) at 300 g glyphosate acid equivalent/ha. All treatments were made up in deionised water and applied using a tracksprayer with a 11002 nozzle at a spray application volume of 200 l/ha. All treatments were replicated 4 times. After spraying the plants were laid out in a glass-house and maintained at a temperature of 24° C. by day and 19° C. by night. A visual assessment of % control was carried out 16 days after treatment.
The AL2042 was applied at 0.2% w/v and the CRODAFOS T5A salts were applied at 0.2% w/v phosphate ester acid equivalent. The Crodafos T5A potassium salt was prepared by neutralising the phosphate ester in its acid form with potassium hydroxide to pH6. The CRODAFOS T5A JEFFAMINE ED600 salt was prepared by neutralising the phosphate ester in its acid form with JEFFAMINE ED600 to pH6.

[3] = test system: Abutilon theophrasti (ABUTH); assay: Glass-house visual % control with potassium glyphosate plus adjuvant; conditions: potassium glyphosate 500 g glyphosate acid equivalent/ha, adjuvant 0.2% w/v, 200 l/ha, 16 days after treatment, 0=unaffected, 100=complete kill
Procedure: Potassium glyphosate was applied at 500 g glyphosate acid equivalent/ha to Abutilon theophrasti (ABUTH) plants grown in the glass-house. All treatments were made up in deionised water and applied using a tracksprayer with a 11002 nozzle at a spray application volume of 200 l/ha . All treatments were replicated 4 times. After spraying the plants were laid out in a glass-house and maintained at a temperature of 24° C. by day and 19° C. by night. The JEFFAMINE adjuvants were used in a proportion 0.2% w/v. A visual assessment of % control, where 0=unaffected and 100=complete kill, was carried out 16 days after treatment.

Question: Which “ED90 SIDSP” value (SIDSP) does the source give for `C[n+]1ccc(-c2cc[n+](C)cc2)cc1` [Control — No adjuvant, Paraquat dichloride] here?
Answer: (>270) g paraquat ion per litre

Question: How did the “SORHA — ED90” value [1] turn out when `C[S+](C)C.O=C([O-])CNCP(=O)(O)O` [Glyphosate trimesium] was run?
Answer: 1410 gae/ha

Question: How did the “IPOHE — % control” value [2] turn out when `O=C(O)CNCP(=O)([O-])O.[K+]` [No adjuvant, Potassium glyphosate] was run?
Answer: 64%

Question: What about the “% control” value [3] of the same molecule?
Answer: 37%
